Tested on: adults with biopsy-confirmed NASH
Experiment: MAESTRO-NASH: liver enzymes, imaging and biomarkers (MRI-PDFF, CAP, VCTE, MRE, liver and spleen volume, ELF)
Type: in vivo, human
Conditions: 80 mg
[1] = wk 48, baseline ALT ≥30 U per liter
[2] = week 52, baseline ELF score ≥9.8
[3] = week 52, baseline PIIINP ≥9 ng/mL
[4] = week 52, baseline TIMP-I ≥240 ng/ml
[5] = week 52, baseline hyaluronic acid ≥50 ng/ml

CC(C)c1cc(Oc2c(Cl)cc(-n3nc(C#N)c(=O)[nH]c3=O)cc2Cl)n[nH]c1=O [Resmetirom, 2-(3,5-dichloro-4-((5-isopropyl-6-oxo-1,6-dihydropyridazin-3-yl)oxy)phenyl)-3,5-dioxo-2,3,4,5-tetrahydro-1,2,4-triazine-6-carbonitrile]
Alanine aminotransferase level, difference from placebo (wk 48): −19.7 percentage points | Aspartate aminotransferase level, difference from placebo (wk 48): −19.3 percentage points | γ-Glutamyltransferase level, difference from placebo (wk 48): −28.3 percentage points | Alanine aminotransferase level, least-squares mean percent change from baseline [1]: −26.6 ± 3.7% | Aspartate aminotransferase level, least-squares mean percent change from baseline [1]: −22.1 ± 3.9% | γ-Glutamyltransferase level, least-squares mean percent change from baseline [1]: −25.0 ± 5.5% | MRI-PDFF, difference from placebo (wk 52): −26.7 percentage points | MRI-PDFF, least-squares mean percent change from baseline (wk 52): −35.4 ± 2.8% | MRE ≥19% increase from BL, no. of patients (F1B, responder analysis): 0 | MRE ≥19% reduction from BL, % of patients (F1B, responder analysis): (20.0) % | MRE ≥19% reduction from BL, no. of patients (F1B, responder analysis): 1 | VCTE/LSM improving >25%, % of patients (F1B, responder analysis): (50.0) % | VCTE/LSM improving >25%, no. of patients (F1B, responder analysis): 6 | VCTE/LSM improving ≥30%, % of patients (F1B, responder analysis): (41.7) % | VCTE/LSM improving ≥30%, no. of patients (F1B, responder analysis): 5 | VCTE/LSM worsening ≥25%, % of patients (F1B, responder analysis): (8.3) % | VCTE/LSM worsening ≥25%, no. of patients (F1B, responder analysis): 1 | VCTE/LSM worsening ≥30%, % of patients (F1B, responder analysis): (8.3) % | VCTE/LSM worsening ≥30%, no. of patients (F1B, responder analysis): 1 | FibroScan VCTE/LSM, LS mean CFB (F1B, week 52): −3.7 kPa | FibroScan VCTE/LSM, LS mean CFB difference from PBO (F1B, week 52): −3.1 kPa | MRE, LS mean % CFB (F1B, week 52): −5.7% | MRE, LS mean % CFB difference from PBO (F1B, week 52): −13.2% | MRE ≥19% increase from BL, no. of patients (F2, responder analysis): 0 | MRE ≥19% reduction from BL, % of patients (F2, responder analysis): (35.0) % | MRE ≥19% reduction from BL, no. of patients (F2, responder analysis): 7 | VCTE/LSM improving ≥25%, % of patients (F2, responder analysis): (44.0) % | VCTE/LSM improving ≥25%, no. of patients (F2, responder analysis): 37 | VCTE/LSM improving ≥30%, % of patients (F2, responder analysis): (33.3) % | VCTE/LSM improving ≥30%, no. of patients (F2, responder analysis): 28 | VCTE/LSM worsening ≥25%, % of patients (F2, responder analysis): (11.9) % | VCTE/LSM worsening ≥25%, no. of patients (F2, responder analysis): 10 | VCTE/LSM worsening ≥30%, % of patients (F2, responder analysis): (8.3) % | VCTE/LSM worsening ≥30%, no. of patients (F2, responder analysis): 7 | FibroScan VCTE/LSM, LS mean CFB (F2, week 52): −2.3 kPa | FibroScan VCTE/LSM, LS mean CFB difference from PBO (F2, week 52): 1.1 kPa | MRE, LS mean % CFB (F2, week 52): −1.9% | MRE, LS mean % CFB difference from PBO (F2, week 52): 4.0% | MRE ≥19% increase from BL, % of patients (F3, responder analysis): (3.6) % | MRE ≥19% increase from BL, no. of patients (F3, responder analysis): 3 | MRE ≥19% reduction from BL, % of patients (F3, responder analysis): (26.2) % | MRE ≥19% reduction from BL, no. of patients (F3, responder analysis): 22 | VCTE/LSM improving ≥25%, % of patients (F3, responder analysis): (41.1) % | VCTE/LSM improving ≥25%, no. of patients (F3, responder analysis): 67 | VCTE/LSM improving ≥30%, % of patients (F3, responder analysis): (34.4) % | VCTE/LSM improving ≥30%, no. of patients (F3, responder analysis): 56 | VCTE/LSM worsening ≥25%, % of patients (F3, responder analysis): (14.7) % | VCTE/LSM worsening ≥25%, no. of patients (F3, responder analysis): 24 | VCTE/LSM worsening ≥30%, % of patients (F3, responder analysis): (12.9) % | VCTE/LSM worsening ≥30%, no. of patients (F3, responder analysis): 21 | FibroScan VCTE/LSM, LS mean CFB (F3, week 52): 2.0 kPa | FibroScan VCTE/LSM, LS mean CFB difference from PBO (F3, week 52): −0.86 kPa | MRE, LS mean % CFB (F3, week 52): −8.9% | MRE, LS mean % CFB difference from PBO (F3, week 52): −8.6% | Liver volume, LS mean % CFB (week 16): −18.8% | Liver volume, LS mean % CFB difference from PBO (week 16): 18.5% | MRI-PDFF % fat fraction, LS mean % CFB (week 16): −37.8% | MRI-PDFF % fat fraction, LS mean % CFB difference from PBO (week 16): −31.4% | Spleen volume, LS mean % CFB (week 16): −2.4% | Spleen volume, LS mean % CFB difference from PBO (week 16): −3.9% | ALT, LS mean % CFB (week 48): −26.6% | ALT, LS mean % CFB difference from PBO (week 48): −19.7% | ALT, LS mean CFB (week 48): −20.4 U/L | AST, LS mean % CFB (week 48): −22.1% | AST, LS mean % CFB difference from PBO (week 48): −19.3% | AST, LS mean CFB (week 48): −13.9 U/L | GGT, LS mean % CFB (week 48): −25.0% | GGT, LS mean % CFB difference from PBO (week 48): −28.3% | GGT, LS mean CFB (week 48): −31.3 U/L | Adiponectin, LS mean CFB (week 52): 0.86 µg/mL | Adiponectin, LS mean CFB difference from PBO (week 52): 0.97 µg/mL | CK-18, LS mean CFB (week 52): −278.2 U/L | CK-18, LS mean CFB difference from PBO (week 52): −134.3 U/L | FibroScan CAP, LS mean CFB (week 52): −39.6 dB/m | FibroScan CAP, LS mean CFB difference from PBO (week 52): −25.2 dB/m | Liver volume, LS mean % CFB (week 52): −21.6% | Liver volume, LS mean % CFB difference from PBO (week 52): −20.5% | MRI-PDFF % fat fraction, LS mean % CFB (week 52): −35.4% | MRI-PDFF % fat fraction, LS mean % CFB difference from PBO (week 52): −26.7% | Spleen volume, LS mean % CFB (week 52): −5.9% | Spleen volume, LS mean % CFB difference from PBO (week 52): −9.0% | Enhanced liver fibrosis score, LS mean CFB [2]: -0.34 | Enhanced liver fibrosis score, LS mean CFB difference from PBO [2]: −0.22 | PIIINP, LS mean % CFB [3]: −10.7% | PIIINP, LS mean % CFB difference from PBO [3]: −9.7% | PIIINP, LS mean CFB [3]: 2.0 ng/mL | PIIINP, LS mean CFB difference from PBO [3]: -1.4 ng/mL | TIMP-I, LS mean % CFB [4]: −9.3% | TIMP-I, LS mean % CFB difference from PBO [4]: −5.7% | TIMP-I, LS mean CFB [4]: -31.0 ng/mL | TIMP-I, LS mean CFB difference from PBO [4]: -17.7 ng/mL | Hyaluronic acid, LS mean % CFB [5]: 17.2% | Hyaluronic acid, LS mean % CFB difference from PBO [5]: −7.6% | Hyaluronic acid, LS mean CFB [5]: 1.1 µg/L

— patent publication US12377104B1, “Methods for treating a fatty liver disease” (Madrigal Pharmaceuticals, Inc., priority 2024, dated 2025)
